# PMC4772679 (Environmental toxicology and chemistry / SETAC, 2015)
# Where two headings read alike, the source gives them in different places.
# Tests used:
# BG1Luc4E2 cells [1] = test: Luciferase induction in stably transfected BG1Luc4E2 cells; assay type: cell-based, human; conditions: for luciferase activity in BG1Luc4E2 cells, initial library screen: 10 µM, normalized to 1 nM E2, single screen in triplicate; for luciferase activity in BG1Luc4E2 cells, initial library screen / MDL (minimal detection limit) [M], BG1Luc4E2 / EC50: 24 h; for Maximum Induction (RLU), BG1Luc4E2: at 30 µM Genistein, 10 µM Br-ERβ-041, 0.1 nM E2, 1 µM PPT; for EC50: read-out: EC50 [M], BG1Luc4E2
# ERα = biological target: T1, ERα (Homo sapiens, UniProt P03372); test: ER-responsive luciferase reporter; assay type: cell-based; conditions: read-out: EC50 [M], ERα; SKBR3 cells, ERα expression plasmid, 24 h, mean ± SD of three experiments
# T1 sequence (P03372 1-595): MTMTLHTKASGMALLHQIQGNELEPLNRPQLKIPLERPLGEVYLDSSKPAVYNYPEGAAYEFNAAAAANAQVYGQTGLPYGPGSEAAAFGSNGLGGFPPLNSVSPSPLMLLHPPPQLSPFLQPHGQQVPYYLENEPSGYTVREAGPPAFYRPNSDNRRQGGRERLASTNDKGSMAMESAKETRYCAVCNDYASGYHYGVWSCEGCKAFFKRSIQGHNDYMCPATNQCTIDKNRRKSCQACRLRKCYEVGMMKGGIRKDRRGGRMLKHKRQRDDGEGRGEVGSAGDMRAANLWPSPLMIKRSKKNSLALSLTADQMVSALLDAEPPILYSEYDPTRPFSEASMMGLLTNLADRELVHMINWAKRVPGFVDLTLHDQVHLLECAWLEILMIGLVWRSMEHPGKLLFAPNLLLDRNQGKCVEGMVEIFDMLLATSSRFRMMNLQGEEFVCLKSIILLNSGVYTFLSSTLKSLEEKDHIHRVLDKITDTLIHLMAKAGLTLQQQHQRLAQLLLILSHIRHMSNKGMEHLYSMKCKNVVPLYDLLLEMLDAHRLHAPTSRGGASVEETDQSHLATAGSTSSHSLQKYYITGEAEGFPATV
# ERβ = ERβ (Homo sapiens, UniProt Q92731); test: ER-responsive luciferase reporter; assay type: cell-based; conditions: SKBR3 cells, ERβ expression plasmid, 24 h, mean ± SD of three experiments
# BG1LucERβc9 cells [2] = test: Luciferase induction in stably transfected BG1LucERβc9 cells; assay type: cell-based, human; conditions: for MDL (minimal detection limit) [M], BG1LucERβc9 / EC50: 24 h; for Maximum Induction (RLU), BG1LucERβc9: at 30 µM Genistein, 10 µM Br-ERβ-041, 0.1 nM E2, 1 µM PPT; for EC50: read-out: EC50 [M], BG1LucERβc9
# BG1Luc4E2 cells [3] = test: Antagonism of agonist-induced luciferase activity in BG1Luc4E2 cells; assay type: cell-based, human; conditions: p < 0.05, Student's t-test
# BG1LucERβc9 cells [4] = test: Antagonism of agonist-induced luciferase activity in BG1LucERβc9 cells; assay type: cell-based, human; conditions: for inhibition of E2-inducible reporter gene expression in BG1LucERβc9 cells: Supplemental Figure S5
# [5] = mean ± SD of 8–16 experiments, genistein and Br-ERβ-041 at 50% of maximum E2 activity
# Sequence of ERβ (Q92731 whole entry): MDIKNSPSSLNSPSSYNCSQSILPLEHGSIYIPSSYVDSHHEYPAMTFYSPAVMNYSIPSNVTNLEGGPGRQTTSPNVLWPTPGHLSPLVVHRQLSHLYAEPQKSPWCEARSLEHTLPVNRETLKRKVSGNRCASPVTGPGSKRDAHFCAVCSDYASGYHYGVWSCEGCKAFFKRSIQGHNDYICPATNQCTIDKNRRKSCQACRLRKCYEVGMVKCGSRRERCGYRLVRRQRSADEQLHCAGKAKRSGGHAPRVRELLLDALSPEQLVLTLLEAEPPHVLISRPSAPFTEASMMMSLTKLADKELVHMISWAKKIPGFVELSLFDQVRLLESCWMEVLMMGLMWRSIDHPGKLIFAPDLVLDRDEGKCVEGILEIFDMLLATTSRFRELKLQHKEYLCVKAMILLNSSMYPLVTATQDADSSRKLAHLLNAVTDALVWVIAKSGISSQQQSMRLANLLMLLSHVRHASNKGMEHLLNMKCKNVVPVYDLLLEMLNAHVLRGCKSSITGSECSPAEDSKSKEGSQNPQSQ
compound,measurement,setting,value
"CCNc1nc(Cl)nc(NC(C)(C)C#N)n1 [Chemical P12, cyanazine]","luciferase activity in BG1Luc4E2 cells, initial library screen",BG1Luc4E2 cells [1],not inducing significant luciferase activity above background
"CCCc1c(-c2ccc(O)cc2)nn(-c2ccc(O)cc2)c1-c1ccc(O)cc1 [PPT, 4,4’,4”-(4-Proply-[1H]-pyrazole-1,3,5-triyl)trisphenol]",EC50,ERα,2.5e-10 M
same,"EC50 [M], ERβ",ERβ,No induction
same,"MDL (minimal detection limit) [M], BG1LucERβc9",BG1LucERβc9 cells [2],1e-10 M
same,"Maximum Induction (RLU), BG1LucERβc9",BG1LucERβc9 cells [2],"7,017 ± 188 RLU"
same,EC50,BG1LucERβc9 cells [2]; [5],3.2e-09 M
same,"MDL (minimal detection limit) [M], BG1Luc4E2",BG1Luc4E2 cells [1],1e-10 M
same,"Maximum Induction (RLU), BG1Luc4E2",BG1Luc4E2 cells [1],"11,422 ± 356 RLU"
same,EC50,BG1Luc4E2 cells [1]; [5],6.7e-10 M
"O=c1c(-c2ccc(O)cc2)coc2cc(O)cc(O)c12 [Genistein, genistein]","MDL (minimal detection limit) [M], BG1LucERβc9",BG1LucERβc9 cells [2],1e-08 M
same,EC50,BG1LucERβc9 cells [2]; Homo sapiens,2e-08 M
same,"Maximum Induction (RLU), BG1LucERβc9",BG1LucERβc9 cells [2],"8,804 ± 306 RLU"
same,"MDL (minimal detection limit) [M], BG1Luc4E2",BG1Luc4E2 cells [1],1e-07 M
same,ERα-dependent reporter gene induction in BG1Luc4E2 cells at low concentration,"BG1Luc4E2 cells [1]; Br-ERβ-041 31.6 nM, genistein 10 nM, preliminary studies, data not shown",failed to induce
same,EC50,BG1Luc4E2 cells [1]; Homo sapiens,1.7e-07 M
same,"Maximum Induction (RLU), BG1Luc4E2",BG1Luc4E2 cells [1],"17,623 ± 575 RLU"
"C[C@]12CC[C@@H]3c4ccc(O)cc4C[C@@H](CCCCCCCCC[S+]([O-])CCCC(F)(F)C(F)(F)F)[C@H]3[C@@H]1CC[C@@H]2O (stereo partly drawn) [fulvestrant, Fulvestrant]",antagonism of Br-ERβ-041 induced activity in BG1Luc4E2 cells versus BG1LucERβc9 cells,BG1Luc4E2 cells [3],significantly more potent antagonist
same,inhibition of E2-inducible reporter gene expression in BG1LucERβc9 cells,BG1LucERβc9 cells [4],inhibit E2-inducible reporter gene expression
same,"concentration-dependent antagonism of E2-induced luciferase activity, BG1LucERβc9 vs BG1Luc4E2 cells",BG1LucERβc9 cells [4]; comparison of both cell lines,comparable
"CC/C(=C(\c1ccc(O)cc1)c1ccc(OCCN(C)C)cc1)c1ccccc1 [Chemical 4-OHT, 4-hydroxy tamoxifen]",inhibition of E2-inducible reporter gene expression in BG1LucERβc9 cells,BG1LucERβc9 cells [4],inhibit E2-inducible reporter gene expression
"CC(C)(c1ccc(O)cc1)c1ccc(O)cc1 [Chemical P159, bisphenol A]","luciferase activity in BG1Luc4E2 cells, initial library screen",BG1Luc4E2 cells [1],high activity
"C[C@]12CC[C@@H]3c4ccc(O)cc4CC[C@H]3[C@@H]1CC[C@@H]2O [Chemical E2, 17β-estradiol]","MDL (minimal detection limit) [M], BG1LucERβc9",BG1LucERβc9 cells [2],1e-12 M
same,EC50,BG1LucERβc9 cells [2]; Homo sapiens,1.3e-11 M
same,"Maximum Induction (RLU), BG1LucERβc9",BG1LucERβc9 cells [2],"5,236 ± 71 RLU"
same,"MDL (minimal detection limit) [M], BG1Luc4E2",BG1Luc4E2 cells [1],3e-12 M
same,EC50,BG1Luc4E2 cells [1]; Homo sapiens,1.6e-11 M
same,"Maximum Induction (RLU), BG1Luc4E2",BG1Luc4E2 cells [1],"10,594 ± 250 RLU"
